Reference: patent publication US7998954B2, “Pyrimidodiazepinone derivative” (Kyowa Hakko Kirin Co., Ltd., priority 2007, dated 2011)

These molecules were tested on Rats with chronic constriction nerve injury (assay: Analgesic effect in rats with chronic constriction nerve injury (von Frey filaments, 50% pain threshold)). Conditions: oral, dose of 30 mg/kg or less, measured after 3 hours.
Format: in vivo, rat
Excerpt: Analgesic Effect of Compounds in Rats with Chronic Constriction Nerve Injury
Rats with chronic constriction nerve injury were produced by partially modifying the method of Mosconi and Kruger et al. [Pain, 1996, Vol. 64, p. 37-57] with slight modification.
The sciatic nerve in the left posterior leg of male Crl:CD (SD) rats was exfoliated under pentobarbital anesthesia, and a polyethylene tube (trade name: Intramedic; size: PE-60; Becton Dickinson) having a length of 2 mm was wrapped over the site of exfoliation. On days 14 to 21 after the surgery, the rats were placed in an acrylic quadruple cage (width 900 mm×depth 210 mm×height 140 mm) with a wire mesh floor consisting 4 cages connected in a row. Pain evaluation was performed after at least 20 minutes to allow the rats to acclimate to the new environment.
In pain evaluation, von Frey filaments (trade name: Touch Test Sensory Evaluator; Model: 58011; Muromachi Kikai Co., Ltd.) were used. The results were calculated as a pain thresholds. That is, by using a von Frey filament of different stimulus intensity, stimulation was given to the plantar surface of the injured side of rats with chronic constriction nerve injury, and the stimulus intensity to cause paw withdrawal response was obtained. […] 441-462]. The 50% pain thresholds of normal rats were 10 to 12 g on average.
For the evaluation of test compounds, rats with 50% pain thresholds of less than 4 g were used. The test compounds were suspended in a 0.5% aqueous methyl cellulose solution, and orally administered at a volume of 5 mL/kg. After 3 hours, pain thresholds were measured using von Frey filaments.

SMILES | pain thresholds (50% paw withdrawal thresholds)
CCNc1ncc2c(n1)N1CCCC1CN(c1cccc(-c3ccnc(Cl)c3)c1)C2=O (stereo not shown) [Compound 16, 5-[3-(2-Chloropyridin-4-yl)phenyl]-9-ethylamino-1,2,3,3a,4,5-hexahydro-5,8,10,10b-tetraazabenzo[e]azulen-6-one] | significantly increased pain thresholds
CCNc1ncc2c(n1)N1CCCC1CN(c1cccc(-c3nnc(C)o3)c1)C2=O (stereo not shown) [Compound 20, 9-Ethylamino-5-[3-(5-methyl-[1,3,4]oxadiazol-2-yl)phenyl]-1,2,3,3a,4,5-hexahydro-5,8,10,10b-tetraazabenzo[e]azulen-6-one] | significantly increased pain thresholds
CCNc1ncc2c(n1)N1CCC[C@H]1CN(c1cncc(-c3nnc(C)o3)c1)C2=O [Compound 43, (S)-9-Ethylamino-5-[5-(5-methyl-1,3,4-oxadiazol-2-yl)pyridin-3-yl]-1,2,3,3a,4,5-hexahydro-5,8,10,10b-tetraazabenzo[e]azulen-6-one] | significantly increased pain thresholds
CCNc1ncc2c(n1)N1CCC[C@H]1CN(c1cccc(-c3noc(C)n3)c1)C2=O [Compound 72, (S)-9-Ethylamino-5-[3-(5-methyl-1,2,4-oxadiazol-3-yl)phenyl]-1,2,3,3a,4,5-hexahydro-5,8,10,10b-tetraazabenzo[e]azulen-6-one] | significantly increased pain thresholds
CNc1ncc2c(n1)N1CCC[C@H]1CN(c1cccc(-c3noc(C)n3)c1)C2=O [Compound 74, (S)-5-[3-(5-Methyl-1,2,4-oxadiazol-3-yl)phenyl]-9-methylamino-1,2,3,3a,4,5-hexahydro-5,8,10,10b-tetraazabenzo[e]azulen-6-one] | significantly increased pain thresholds
CNc1ncc2c(n1)N1CCC[C@H]1CN(c1cccc(-c3nn(C)c(=O)o3)c1)C2=O [Compound 89, (S)-3-Methyl-5-[3-(9-methylamino-6-oxo-2,3,3a,4-tetrahydro-1H,6H-5,8,10,10b-tetraazabenzo[e]azulen-5-yl)phenyl]-1,3,4-oxadiazol-2(3H)-one] | significantly increased pain thresholds
CCNc1ncc2c(n1)N1CCC[C@H]1CN(c1cccc(-c3nn(C)c(=O)o3)c1)C2=O [Compound 90, (S)-5-[3-(9-Ethylamino-6-oxo-2,3,3a,4-tetrahydro-1H,6H-5,8,10,10b-tetraazabenzo[e]azulen-5-yl)phenyl]-3-methyl-1,3,4-oxadiazol-2(3H)-one] | significantly increased pain thresholds
CNc1ncc2c(n1)N1CCC[C@H]1CN(c1cccc(-c3nnn(C)n3)c1)C2=O [Compound 137, (S)-5-[3-(2-Methyl-2H-tetrazol-5-yl)phenyl]-9-methylamino-1,2,3,3a,4,5-hexahydro-5,8,10,10b-tetraazabenzo[e]azulen-6-one] | significantly increased pain thresholds

Each molecule was assayed on chronic dermatitis model with repeated hapten applications (assay: Effects on pruritus in chronic dermatitis model with repeated hapten (oxazolone) applications). Conditions: 100 mg/kg oral, 1 hour before antigen application on day 16; BALB/c mice; ***P < 0.001, t-test vs control group.
Format: in vivo
Excerpt: Effects on Pruritus in Chronic Dermatitis Model with Repeated Hapten Applications
A chronic dermatitis model with repeated hapten applications was produced by partially modifying the method of Kitagaki et al. [Journal of Investigative Dermatology, 1995, Vol. 105, p. 749-755].
Oxazolone (Sigma-Aldrich) was used as hapten, and dissolved in acetone (Kanto Kagaku) to prepare a 0.5 w/v % oxazolone-acetone solution (antigen solution). BALB/c mice (6 weeks of age) were sensitized by a single application of the antigen solution (10 μL) to the shaved rostral back. […]
Itch response of the mice on day 16 was analyzed by partially modifying the method of Kuraishi et al. [European journal of phamacology, 1995, Vol. 275, p. […]
To allow the mice to acclimate to new environment, the mice were left in an acrylic observation cage (7.5×8×15 cm) for 1 hour. The mice were put back into the cage immediately after the application of the antigen solution to the rostral back, and the behavior of the mice was monitored unattended with an 8 mm video camera recorder. […] During the observation, scratching movements with the hind paws around the site of antigen solution application was counted. […] A series of these movements was counted as a single scratching movement.

SMILES | The number of scratching movements during 1 hr after the hapten applications [counts]
CCNc1ncc2c(n1)N1CCC[C@H]1CN(Cc1ccc(F)cc1F)C2=O [Compound 3, (S)-5-(2,4-Difluorobenzyl)-9-ethylamino-1,2,3,3a,4,5-hexahydro-5,8,10,10b-tetraazabenzo[e]azulen-6-one] | 225±37
CCNc1ncc2c(n1)N1CCC[C@H]1CN(CC1CCN(C(=O)c3ccco3)CC1)C2=O [Compound 35, (S)-9-Ethylamino-5-[1-(furan-2-carbonyl)piperidin-4-yl]methyl-1,2,3,3a,4,5-hexahydro-5,8,10,10b-tetraazabenzo[e]azulen-6-one] | 84±33
